Experimental data published in ChEMBL document CHEMBL3400109, “Synthesis and biological evaluation of C-13' substituted 7'-homo-anhydrovinblastine derivatives” (Bioorg Med Chem Lett, 2015).

Key:
Tubulin (Homo sapiens) = Tubulin (Homo sapiens) (UniProt P68371+Q9H4B7+P0DPH7+P68366+Q13509+Q71U36+P04350+Q3ZCM7+P07437+P68363+Q9BQE3+Q6PEY2+Q13885+Q9BVA1+Q9BUF5); assay: (§1) Inhibition of tubulin (unknown origin) polymerization at 10 mg/ml; assay type: protein-complex assay
K562 = assay: Cytotoxicity against human K562 cells assessed as inhibition of cell proliferation after 72 hrs; assay type: functional, cell-based; conditions: K562, 72 h
[1] = Cytotoxicity against human HCT116 cells assessed as inhibition of cell proliferation after 72 hrs; assay type: functional, cell-based; conditions: HCT-116, 72 h
[2] = Cytotoxicity against human U87 cells assessed as inhibition of cell proliferation after 72 hrs; assay type: functional, cell-based, U-87MG ATCC; conditions: U-87 MG
Tubulin [3] = assay: as §1; assay type: protein-complex assay, Homo sapiens
Tubulin [4] = assay: Inhibition of tubulin (unknown origin) polymerization; assay type: protein-complex assay, Homo sapiens

| SMILES | inhibition (Tubulin (Homo sapiens)) | IC50 (Tubulin [3]) | IC50 (Tubulin [4]) | IC50 (K562) | IC50 [1] | IC50 [2] |
| --- | --- | --- | --- | --- | --- | --- |
| C#Cc1ccc2[nH]c3c(c2c1)C/C(C(=O)OC)=C\N1CC(CC)=CC(C1)C[C@]3(C(=O)OC)c1cc2c(cc1OC)N(C)[C@H]1[C@@](O)(C(=O)OC)[C@H](OC(C)=O)[C@]3(CC)C=CCN4CC[C@]21[C@@H]43 (stereo partly specified) | 27% | – | – | 600 nM | 2500 nM | 1600 nM |
| CC[C@]1(O)C[C@@H]2CN(CCc3c([nH]c4ccccc34)[C@@](C(=O)OC)(c3cc4c(cc3OC)N(C)[C@H]3[C@@](O)(C(=O)OC)[C@H](OC(C)=O)[C@]5(CC)C=CCN6CC[C@]43[C@@H]65)C2)C1 [VINBLASTINE] | – | – | – | 10 nM | 2 nM | 1 nM |
| CCC1=CC2CN(/C=C(/C(=O)OC)Cc3c([nH]c4ccc(C=O)cc34)[C@@](C(=O)OC)(c3cc4c(cc3OC)N(C)[C@H]3[C@@](O)(C(=O)OC)[C@H](OC(C)=O)[C@]5(CC)C=CCN6CC[C@]43[C@@H]65)C2)C1 (stereo partly specified) | 11% | – | – | 40 nM | 270 nM | 23 nM |
| CCC1=C[C@@H]2CN(C1)Cc1c([nH]c3ccccc13)[C@@](C(=O)OC)(c1cc3c(cc1OC)N(C)[C@H]1[C@@](O)(C(=O)OC)[C@H](OC(C)=O)[C@]4(CC)C=CCN5CC[C@]31[C@@H]54)C2 [VINORELBINE] | – | – | 700 nM | – | 15 nM | 3.5 nM |
| CCC1=CC2CN(/C=C(/C(=O)OC)Cc3c([nH]c4ccc(Br)cc34)[C@@](C(=O)OC)(c3cc4c(cc3OC)N(C)[C@H]3[C@@](O)(C(=O)OC)[C@H](OC(C)=O)[C@]5(CC)C=CCN6CC[C@]43[C@@H]65)C2)C1 (stereo partly specified) | 23% | – | – | 500 nM | 3000 nM | 3000 nM |

The next lines start with results.

| inhibition (Tubulin (Homo sapiens)) | IC50 (Tubulin [3]) | IC50 (Tubulin [4]) | SMILES | IC50 (K562) | IC50 [1] | IC50 [2] |
| --- | --- | --- | --- | --- | --- | --- |
| 23% | – | – | CCC1=CC2CN(/C=C(/C(=O)OC)Cc3c([nH]c4ccc(C)cc34)[C@@](C(=O)OC)(c3cc4c(cc3OC)N(C)[C@H]3[C@@](O)(C(=O)OC)[C@H](OC(C)=O)[C@]5(CC)C=CCN6CC[C@]43[C@@H]65)C2)C1 (stereo partly specified) | 20 nM | 50 nM | 11 nM |
| 16% | – | – | C#Cc1ccc2[nH]c3c(c2c1)C/C(C(=O)OC)=C(/C(=O)NC(C)C)N1CC(CC)=CC(C1)C[C@]3(C(=O)OC)c1cc2c(cc1OC)N(C)[C@H]1[C@@](O)(C(=O)OC)[C@H](OC(C)=O)[C@]3(CC)C=CCN4CC[C@]21[C@@H]43 (stereo partly specified) | 600 nM | 3000 nM | 2000 nM |
| 44% | – | – | CCC1=CC2CN(C1)/C(C(=O)NC(C)C)=C(/C(=O)OC)Cc1c([nH]c3ccc(I)cc13)[C@@](C(=O)OC)(c1cc3c(cc1OC)N(C)[C@H]1[C@@](O)(C(=O)OC)[C@H](OC(C)=O)[C@]4(CC)C=CCN5CC[C@]31[C@@H]54)C2 (stereo partly specified) | – | 5000 nM | 3000 nM |
| 0% | – | – | CCC1=CC2CN(C1)/C(C(=O)NC(C)C)=C(/C(=O)OC)Cc1c([nH]c3ccc(C)cc13)[C@@](C(=O)OC)(c1cc3c(cc1OC)N(C)[C@H]1[C@@](O)(C(=O)OC)[C@H](OC(C)=O)[C@]4(CC)C=CCN5CC[C@]31[C@@H]54)C2 (stereo partly specified) | 1 nM | 20 nM | 33 nM |
| – | 6.2 µM | – | CCC1=CC2CN(/C=C(/C(=O)OC)Cc3c([nH]c4ccc(I)cc34)[C@@](C(=O)OC)(c3cc4c(cc3OC)N(C)[C@H]3[C@@](O)(C(=O)OC)[C@H](OC(C)=O)[C@]5(CC)C=CCN6CC[C@]43[C@@H]65)C2)C1 (stereo partly specified) | 1000 nM | 7000 nM | 5000 nM |
| 25% | – | – | CCC1=CC2CN(C1)/C(C(=O)NC(C)C)=C(/C(=O)OC)Cc1c([nH]c3ccc(C=O)cc13)[C@@](C(=O)OC)(c1cc3c(cc1OC)N(C)[C@H]1[C@@](O)(C(=O)OC)[C@H](OC(C)=O)[C@]4(CC)C=CCN5CC[C@]31[C@@H]54)C2 (stereo partly specified) | 16 nM | 47 nM | 119 nM |
